Results as given in US12005139B2, “Ophthalmic formulations and related methods” (EternaTear, Inc., priority 2022, dated 2024).

System: cell layers
Test: USP (87) biological reactivity testing (cytotoxicity)
Assay type: cell-based
Parameters: key: “severe” reactivity meaning there was nearly complete destruction of all cell layers
Conditions: dilutions of 50 ppm BAK with EDTA in saline ophthalmic vehicle, down to 5% of use concentration
Procedure: Testing was conducted by a neutral third party laboratory to determine the cytotoxicity of benzalkonium chloride (BAK) when used as a preservative in a standard topical saline ophthalmic solution vehicle. Test solutions of BAK at various dilutions at the typical preservation concentration used in ophthalmic products (50 ppm) were subject to USP (87) biological reactivity testing and graded according to reactivity. All solutions contained EDTA as an adjunct to enable the BAK to be active against gram negative bacteria. All negative and positive controls were nominal.

benzalkonium chloride [BAK]
USP (87) biological reactivity grade: severe
